Measurements taken from patent US11370847B2, “Single domain antibodies directed against intracellular antigens” (Singh Biotechnology, LLC, priority 2014, dated 2022).
Several values for one entry are separate records, joined by “and”; a condition that tells them apart may be missing. Equal values may be shown once. Read-outs that look alike come from different tables or passages of the source. Values belong to the molecule of their own block, whether it stands above or below them.

Assays:
PANC-1 cells = assay: MTT proliferation assay, PANC-1; conditions: for Abs: 72 hours
SJSA-1 cells = assay: MTT proliferation assay, SJSA-1; type: cell-based, human; conditions: SJSA-1; 72 hours; 50 μg/ml
STAT3 = STAT3 reporter GloResponse SIE-luc2P/HEK293 assay, IL-6 induction; type: cell-based; conditions: for effect on IL-6 induction of the STAT3 reporter: 24 and 48 hours treatment, VHH13 and VHH69 at highest concentration, VHH14 at both concentrations;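 for all read-outs here: SIE-luc2P/HEK293 reporter cells stimulated with IL-6 at 40 ng/mL (EC80) after pretreatment, luciferase luminescence (RLU) read the following day, triplicate wells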
MDA-MB-231 cells = assay: MTT proliferation assay, MDA-MB-231; type: cell-based, human; conditions: for Mean: mean absorbance;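 for all read-outs here: proliferation of cultured human cancer cells read by MTT, with treated groups compared against a vehicle control group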
TNF-α = target: T1, TNF-α (Homo sapiens, UniProt P01375); assay: Inhibition of TNF-α cytotoxicity against U937 by anti-TNF-α VHHs; type: cell-based; conditions: constant dose of TNF-α at EC50
T1 construct: purchased Sigma-Aldrich
T1 sequence (P01375 77-233 limits assumed): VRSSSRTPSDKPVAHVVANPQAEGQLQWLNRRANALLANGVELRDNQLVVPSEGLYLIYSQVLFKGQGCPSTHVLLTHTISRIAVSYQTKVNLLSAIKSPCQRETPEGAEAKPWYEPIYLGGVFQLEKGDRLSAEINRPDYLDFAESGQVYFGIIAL
Description: The concentration of TNF-α required to show measurable modulation of activity in the U937 human […] cell line was evaluated by quantitation of the ATP present, which signals the presence of metabolically active cells using Promega's Cell Titer-Glo® Luminescent Cell Viability assay.
The U937 cells were seeded in a clear polystyrene 96-well microculture plate (Corning® Costar® 96-well flat bottom plate, Cat. #3997) in a total volume of 90 μL/well. After 24 hours of incubation in a humidified incubator at 37° C. with 5% CO2 and 95% air, 5 μL of 20×, serially diluted TNF-α in growth medium was added to each well in duplicate (10 pt dose response, highest concentration 20 ng/mL). Additionally, 5 μL of 20×, diluted staurosporine in growth medium was added to each well in duplicate (concentration 1 nM).
After 24 hours of culture in the presence of test agents, the concentration of compound required to show measurable modulation of TNF-α activity in the U937 cell line as evaluated by quantitation of the ATP present. Percent cell growth was calculated relative to untreated control wells. All tests were performed in duplicate at each concentration level.
The EC50 value for the test agents was estimated using Prism 6.05 by curve-fitting the data using the following four parameter-logistic equation: […]

[1] = target: T2, active human TNF-α full length protein (Homo sapiens, UniProt P01375); assay: TNF-α binding ELISA; conditions: for detection in coated versus non-coated wells: 0.5 μg/mL coating antigen, sdAb at 1 μg/mL; for detection in TNF-α ELISA: Experiment 1, 1 μg/mL sdAb; for OD450 Values: Non-Coated wells (non-specific binding), sdAb 1 μg/mL
T2 construct: active human TNF-α full length protein; purchased Abcam
T2 sequence (P01375 77-233 limits assumed): as above
Description: In this Example, the binding of anti-TNF-α sdAbs to active human TNF-α full length protein was assessed using an enzyme linked immunosorbent assay (ELISA) format. Additionally, the feasibility of utilizing a secondary antibody targeted to the his tag portion of the sdAbs was assessed.
The test articles for this study were anti-TNF-α VHH62 (SEQ ID NO:47) sdAb, TNF-α VHH66 (SEQ ID NO:45) sdAb, and anti-TNF-α VHH69 (SEQ ID NO:46) sdAb (Experiment 1).
For the assays to assess the binding of the sdAbs to TNF-α protein (Experiment 1, 4 and 5), a standard sandwich ELISA format was utilized. […] Plates were incubated overnight at 2-8° C. After the incubation, plates were washed (3×) and blocked (3% Bovine Serum Albumin (BSA) in Phosphate Buffered Saline (PBS)) for at least one hour at room temperature.
After removal of the blocking buffer and washing (3×), samples were added to the appropriate wells of the ELISA plates and incubated at room temperature with shaking (150 rpm) for at least one hour. The secondary antibody (rabbit anti-llama biotinylated antibody at either a1:5,000 or 10,000 dilution) was then added to each well and incubated with shaking for at least one hour at room temperature.
After the incubation with secondary antibody, the plates were again washed (3×) and horseradish peroxidase (HRP) at either a 1:25,000 or 1:50,000 dilution was added to each well. Plates were incubated with shaking for at least one hour at room temperature. A final wash (3×) was performed followed by the addition of TMB (Tetramethylbenzidine) substrate. After a 20 to 25 minute incubation at room temperature, stop solution was added to halt the colorimetric reaction. The absorbance at 450 nm was measured on a VersaMax instrument utilizing SoftMax Pro GxP version 5.4 software from Molecular Devices (Sunnyvale, Calif.).
The final experiment performed was to confirm that the results from the ELISA testing were due to binding to the TNF-α protein and not non-specific binding of the sdAb. For this determination, a comparison was made between wells coated with 0.5 μg/mL of coating antigen and non-coated wells. […] This experiment confirms that the detection seen with the previous experiments was due to the specific binding of the VHH to the coating antigen and not due to non-specific binding.

[2] = test system: rabbit anti-llama biotinylated antibody or his-probe (H-3) biotin labeled antibody; assay: ELISA of secondary antibody binding to coated sdAbs; conditions: Experiment 3, sdAb coated at 1 μg/mL, stored 1:100 dilution
Description: Two assays (Experiment 2 and 3) were performed to assess the binding of the secondary antibody to the sdAbs. A similar ELISA method was utilized except the sdAbs were directly coated onto the assay plate at a concentration of 1 μg/mL. Plates were incubated overnight at 2-8° C. After the incubation, plates were washed (3×) and blocked (3% BSA in PBS) for at least one hour at room temperature.
After removal of the blocking buffer and washing (3×), the secondary antibodies, either rabbit anti-llama biotinylated antibody or his-probe (H-3) biotin labeled antibody at was then added at a 1:5,000 dilution to each well and incubated with shaking for at least one hour at room temperature. Only the rabbit anti-llama biotinylated antibody was used in Experiment 2. Both antibodies were run in parallel in Experiment 3.
After the incubation with secondary antibody, the plates were again washed (3×) and HRP at a 1:50,000 dilution was added to each well. Plates were incubated with shaking for at least one hour at room temperature. One last wash (3×) was performed followed by the addition of TMB substrate and plates were incubated at room temperature. For the anti-llama biotinylated antibody stop solution was added to halt the colorimetric reaction at 10 minutes. The his-probe (H-3) biotin labeled antibody was allowed to incubate for 20 minutes prior to stopping. The absorbance at 450 nm was measured as before.

SIE-luc2P/HEK293 cells = assay: BCA protein concentration of reporter cells; type: cell-based
[3] = Homo sapiens, PANC-1, 72 h, read-out: % Inhibition, Growth Inhibition of PANC-1 Cells
[4] = 24 Hour Treatment Prior to IL6 Induction, higher conc.: VHH13 55.8 μg/mL, VHH14 84.3 μg/mL, BB1608 4.16 μM, VHH69 50.5 μg/mL
[5] = 24 Hour Treatment Prior to IL6 Induction, lower conc.: VHH13, VHH14, VHH69 10 μg/mL, BB1608 2 μM
[6] = 48 Hour Treatment Prior to IL6 Induction, higher conc.: VHH13 55.8 μg/mL, VHH14 84.3 μg/mL, BB1608 4.16 μM, VHH69 50.5 μg/mL
[7] = 48 Hour Treatment Prior to IL6 Induction, lower conc.: VHH13, VHH14, VHH69 10 μg/mL, BB1608 2 μM
[8] = Rabbit anti-Llama Secondary Antibody

Molecule: Nc1ccn([C@@H]2O[C@H](CO)[C@@H](O)C2(F)F)c(=O)n1 [Gemcitabine]
Abs (PANC-1 cells; Gemcitabine Hydrochloride (Biovision #1759) 0.020 μM alone): 1.631
Abs (PANC-1 cells; Gemcitabine Hydrochloride (Biovision #1759) 0.039 μM alone): 1.550
Abs (PANC-1 cells; Gemcitabine Hydrochloride (Biovision #1759) 0.313 μM alone): 1.084
Abs (PANC-1 cells; Gemcitabine Hydrochloride (Biovision #1759) 0.625 μM alone): 1.001
Abs (PANC-1 cells; Gemcitabine Hydrochloride (Biovision #1759) 5 μM alone): 0.654
Abs (PANC-1 cells; Gemcitabine Hydrochloride (Biovision #1759) 10 μM alone): 0.576
inhibition at 0.02 µM (PANC-1 cells; Homo sapiens, PANC-1): 0%
inhibition at 0.039 µM (PANC-1 cells; Homo sapiens, PANC-1): 0%
inhibition at 0.313 µM (PANC-1 cells; Homo sapiens, PANC-1): 5%
inhibition at 0.625 µM (PANC-1 cells; Homo sapiens, PANC-1): 0%
inhibition at 5 µM (PANC-1 cells; Homo sapiens, PANC-1): 40%
inhibition at 10 µM (PANC-1 cells; Homo sapiens, PANC-1): 48%
inhibition at 5 µM (PANC-1 cells; [3]): 38%
inhibition at 10 µM (PANC-1 cells; [3]): 35%
inhibition at 10 µM (PANC-1 cells; Homo sapiens, PANC-1, 72 h, read-out: growth inhibition of PANC-1 cells): 48%

Molecule: Curirx P04: SBT-100 produced by Curirx, P04 buffer sample
growth inhibition (SJSA-1 cells): significant growth inhibition

Molecule: CC(=O)c1cc2c(o1)C(=O)c1ccccc1C2=O [BBI608, napabucasin, reference compound]
Average RLU (STAT3; [4]): 33 RLU
Luminescence (replicate wells) (STAT3; [4]): 41 RLU and 28 RLU and 31 RLU
Fold-Induction RLU/RLU of −IL6 (STAT3; [5]): 0
Luminescence (replicate wells) (STAT3; [5]): 41 RLU and 33 RLU and 39 RLU
effect on IL-6 induction of the STAT3 reporter (STAT3): Inhibition of IL-6
Fold-Induction RLU/RLU of −IL6 (STAT3; [6]): 0
Luminescence (replicate wells) (STAT3; [6]): 32 RLU and 25 RLU and 31 RLU
Average RLU (STAT3; [7]): 33 RLU
Luminescence (replicate wells) (STAT3; [7]): 31 RLU and 26 RLU and 42 RLU

Molecule: MPT His Tag: SBT-100 produced by Microprotein Technologies, His tag preparation
inhibition compared with other SBT-100 preparations (MDA-MB-231 cells; MDA-MB-231): greatest inhibition
MTT absorbance, single replicates (MDA-MB-231 cells; MDA-MB-231, 50 μg/ml): 0.095 and 0.091 and 0.102 and 0.1 and 0.087 and 0.092
Mean (MDA-MB-231 cells; MDA-MB-231, 50 μg/ml): 0.0945
MTT absorbance, single replicates (MDA-MB-231 cells; MDA-MB-231, 100 μg/ml): 0.74 and 0.8 and 0.82
Mean (MDA-MB-231 cells; MDA-MB-231, 100 μg/ml): 0.079

Molecule: MPT B1 (pH 5.0): SBT-100 produced by Microprotein Technologies
MTT absorbance, single replicates (MDA-MB-231 cells; MDA-MB-231, 50 μg/ml): 0.924 and 0.741 and 0.834 and 0.749 and 0.771 and 0.77
Mean (MDA-MB-231 cells; MDA-MB-231, 50 μg/ml): 0.798
MTT absorbance, single replicates (MDA-MB-231 cells; MDA-MB-231, 100 μg/ml): 0.65 and 0.656 and 0.624
Mean (MDA-MB-231 cells; MDA-MB-231, 100 μg/ml): 0.643

detection in TNF-α ELISA [1]: little to no detection
OD450 ([1]; Experiment 4, original and new receipt, dilutions starting at 1 μg/mL): < 0.2 OD450
OD450 Values [1]: −0.001
OD450 Values ([2]; His-probe (H-3)): 0.196
OD450 Values [2, 8]: 2.341
B1: anti-TNF-α VHH62: anti-TNF-α sdAb, SEQ ID NO:47 (protein)
VHH: QVQLVESGGGPVQAGETLRLSCTASGFTFAEADMGWYRQAPGHECELVSTITTEGITSEASSYYADSVRGRFTISRDNAKNMVYLQMNSLKPEDTAVYYCAPDPYAYSTYSDYCSWAQGTQGTLVTVSS
modifications: Camelid
inhibition of TNF-α killing of U937 (TNF-α): inhibit killing of U937 by TNF-α
detection in coated versus non-coated wells [1]: not detected in either coated or non-coated wells

B2: anti-STAT3 VHH14: second anti-STAT3 sdAb, SEQ ID NO:4 (protein)
VHH: QVQLVESGGGSVQAGGSLRLSCVASTYTGCMGWFRQAPGKEREGVAALSSRGFAGHYTDSVKGRFSISRDYVKNAVYLQMNTVKPEDAAMYYCAAREGWECGETWLDRTAGGHTYWGQGTLVTVSS
modifications: Camelid
effect on IL-6 induction of the STAT3 reporter (STAT3): enhancement of the IL-6 induction

detection in TNF-α ELISA [1]: little to no detection
OD450 Values [1]: 0.007
OD450 Values ([2]; His-probe (H-3)): 0.153
OD450 Values [2, 8]: 0.443
B3: anti-TNF-α VHH69: anti-TNF-α sdAb, SEQ ID NO:46 (protein)
VHH: EVQLVESGGGSVLAGGSLRLSCVASGFTSRYNYMAWFRQAPGKEREGVATIGTASGSADYYGSVKDRFTISQDNAKNTVYLQMNSLKPEDTAMYYCAARTYGTISLTPSDYRYWGQGTLVTVSS
modifications: Camelid
inhibition of TNF-α killing of U937 (TNF-α): inhibit killing of U937 by TNF-α
Protein concentration (SIE-luc2P/HEK293 cells; [4]): 213
Protein concentration (SIE-luc2P/HEK293 cells; [5]): 237
Protein concentration (SIE-luc2P/HEK293 cells; [7]): 222
detection in coated versus non-coated wells [1]: detected in coated wells but not in non-coated wells
Average RLU (STAT3; [4]): 198596 RLU
Average RLU with Media Blank (STAT3; [4]): 198571 RLU
Fold-Induction RLU/RLU of −IL6 (STAT3; [4]): 434
Luminescence (replicate wells) (STAT3; [4]): 203139 RLU and 194320 RLU and 198330 RLU
Average RLU (STAT3; [5]): 169752 RLU
Average RLU with Media Blank (STAT3; [5]): 169726 RLU
Fold-Induction RLU/RLU of −IL6 (STAT3; [5]): 371
Luminescence (replicate wells) (STAT3; [5]): 159115 RLU and 184364 RLU and 165776 RLU
effect on IL-6 induction of the STAT3 reporter (STAT3): enhancement of the IL-6 induction
Average RLU (STAT3; [6]): 225726 RLU
Average RLU with Media Blank (STAT3; [6]): 225694 RLU
Fold-Induction RLU/RLU of −IL6 (STAT3; [6]): 452
Luminescence (replicate wells) (STAT3; [6]): 219104 RLU and 237816 RLU and 220259 RLU
Average RLU (STAT3; [7]): 172988 RLU
Average RLU with Media Blank (STAT3; [7]): 172955 RLU
Fold-Induction RLU/RLU of −IL6 (STAT3; [7]): 347
Luminescence (replicate wells) (STAT3; [7]): 155927 RLU and 191241 RLU and 171796 RLU
